PMC6366404, “4-(3-Nitrophenyl)thiazol-2-ylhydrazone derivatives as antioxidants and selective hMAO-B inhibitors: synthesis, biological activity and computational analysis” (Journal of Enzyme Inhibition and Medicinal Chemistry, 2019)
Like-named read-outs stand apart in the source and are kept apart here.

Legend:
hMAO-B [1] = biological target: T1, hMAO-B (Homo sapiens, UniProt P27338); assay: hMAO-B inhibition, IC50 determination (kynuramine fluorescence); type: biochemical; conditions: for Selectivity index (SI) for the MAO-B isoform: ratio (IC50 hMAO-A)/(IC50 hMAO-B)
T1 sequence (P27338 1-520): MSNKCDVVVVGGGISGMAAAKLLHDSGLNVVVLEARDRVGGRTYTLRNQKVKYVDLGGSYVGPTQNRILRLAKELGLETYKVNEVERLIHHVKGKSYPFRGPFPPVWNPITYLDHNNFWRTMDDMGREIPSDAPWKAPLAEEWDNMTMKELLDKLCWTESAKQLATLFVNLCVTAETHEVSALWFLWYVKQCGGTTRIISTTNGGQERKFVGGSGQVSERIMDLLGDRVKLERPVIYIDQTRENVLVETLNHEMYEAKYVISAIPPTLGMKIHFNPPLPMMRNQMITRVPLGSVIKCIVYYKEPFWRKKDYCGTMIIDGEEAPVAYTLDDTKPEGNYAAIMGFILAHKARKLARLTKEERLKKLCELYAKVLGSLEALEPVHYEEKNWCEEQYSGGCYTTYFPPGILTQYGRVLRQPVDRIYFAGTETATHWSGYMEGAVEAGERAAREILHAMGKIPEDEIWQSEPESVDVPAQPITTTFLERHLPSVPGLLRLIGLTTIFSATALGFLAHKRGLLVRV
Procedure: (§1) The procedure for the measurement of IC50 values for the inhibition of MAO has been reported. The enzyme reactions were prepared to a volume of […] in potassium phosphate buffer at pH 7.4 (100 mM, made isotonic with KCl) and contained kynuramine (50 μM) and the test inhibitors (0.003–100 µM). Stock solutions of the test inhibitors were prepared in DMSO and added to the reactions to yield 4% DMSO. The enzyme reactions were initiated with the addition of recombinant hMAO-A (0.0075 mg protein/mL) or hMAO-B (0.015 mg protein/mL) and incubated for 20 min at 37 °C. At endpoint, the reactions were terminated with 80 µL sodium hydroxide (2N) and the fluorescence of 4-hydroxyquinoline, the oxidation product of kynuramine, was measured (λex = 310; λem = 400 nm)[33]. 4-Hydroxyquinoline was quantified with a calibration curve (0.047–1.56 μM) and the rate of 4-hydroxyquinoline formation was fitted to the one site competition model of the Prism 5 software package (GraphPad). From the resulting sigmoidal plots, the IC50 values were estimated. All enzyme reactions were carried out in triplicate and IC50 values are given as the mean ± standard deviation (SD).

[2] = Phosphomolybdenum assay (PhosphoMo), total antioxidant activity; conditions: concentration at which absorbance was 0.5
Procedure: The total antioxidant activity of the compounds was evaluated by phosphomolybdenum method according to Zengin et al.[35]. The sample solution (0.3 ml) was combined with 3 ml of reagent solution (0.6 M sulphuric acid, 28 mM sodium phosphate, and 4 mM ammonium molybdate) and the absorbance was recorded at 695 nm after 90 min incubation at 95 °C. The EC50, which is the effective concentration at which the absorbance was 0.5, was calculated for each compound and trolox, as a reference drug.

[3] = DPPH radical scavenging activity
Procedure: The radical scavenging effect of the compounds using the 1,1-diphenyl-2-picrylhydrazyl (DPPH) radical was estimated according to Zengin et al.[36]. The sample solution (1 ml) was added to 4 ml of a 0.004% solution of DPPH in methanol. The sample absorbance was recorded at 517 nm after 30 min incubation at room temperature in the dark.
(§2) The scavenging activity of the compounds on the ABTS radical cation [ABTS,2,2′-azino-bis(3-ethylbenzothiazoline)-6-sulphonic acid] was measured according to the method of Zengin et al.[37] with slight modification. Briefly, ABTS^+ was produced directly by reacting a 7 mM ABTS solution with 2.45 mM potassium persulphate and allowing the mixture to incubate for 12–16 h in the dark at room temperature. Prior to initiating the assay, the ABTS solution was diluted with methanol to an absorbance of 0.700 ± 0.02 at 734 nm. The sample solution (1 ml) was added to the ABTS^+ solution (2 ml) and mixed, and the sample absorbance was recorded at 734 nm after 30 min incubation at room temperature. The corresponding IC50 value, which is the effective concentration at which 50% of DPPH/ABTS radicals are scavenged, was calculated for each compound and trolox, as a reference drug.

[4] = ABTS radical cation scavenging activity
Procedure: as §2

[5] = Cupric ion reducing activity (CUPRAC)
Procedure: The cupric ion reducing activity (CUPRAC) was determined according to the method of Zengin et al.[38]. The sample solution (0.5 ml) was added to a premixed reaction mixture containing CuCl2 (1 ml, 10 mM), neocuproine (1 ml, 7.5 mM), and NH4Ac buffer (1 ml, 1 M, pH 7.0). Similarly, a blank was prepared by adding the sample solution (0.5 ml) to a premixed reaction mixture (3 ml) without CuCl2. The absorbances of the sample and blank were subsequently recorded at 450 nm after 30 min incubation at room temperature. The absorbance of the blank was subtracted from that of the sample.
(§3) The FRAP (ferric reducing antioxidant power) assay was carried out as described by Zengin et al.[38]. The sample solution (0.1 ml) was added to the premixed FRAP reagent (2 ml) containing acetate buffer (0.3 M, pH 3.6), 2,4,6-tris(2-pyridyl)-s-triazine (10 mM) in 40 mM HCl, and ferric chloride (20 mM) in a ratio of 10/1/1 (v/v/v). The absorbance of the sample was subsequently recorded at 593 nm after 30 min incubation at room temperature. Both results were expressed as EC50 values, using trolox as a reference drug.

[6] = FRAP (ferric reducing antioxidant power) assay
Procedure: as §3

[7] = Metal chelating activity on ferrous ions; conditions: ferrozine
Procedure: Metal chelating activity on ferrous ions was evaluated by the method previously described. Briefly, the sample solution (2 ml) was added to FeCl2 solution (0.05 ml, 2 mM). The reaction was initiated by the addition of 5 mM ferrozine (0.2 ml). Similarly, a blank was prepared by adding the sample solution (2 ml) to FeCl2 solution (0.05 ml, 2 mM) and water (0.2 ml) without ferrozine. Then, the sample and blank absorbance were recorded at 562 nm after incubation for 10 min at room temperature. The absorbance of the blank was subtracted from that of the sample. EDTA was used as a positive control and this property was expressed as IC50 value for each compound.

hMAO-A = biological target: T2, hMAO-A (Homo sapiens, UniProt P21397); assay: hMAO-A inhibition, IC50 determination (kynuramine fluorescence); type: biochemical; conditions: recombinant hMAO-A, kynuramine 50 μM, 20 min, 37 °C; read-out: IC50 hMAO-A
T2 sequence (P21397 1-527): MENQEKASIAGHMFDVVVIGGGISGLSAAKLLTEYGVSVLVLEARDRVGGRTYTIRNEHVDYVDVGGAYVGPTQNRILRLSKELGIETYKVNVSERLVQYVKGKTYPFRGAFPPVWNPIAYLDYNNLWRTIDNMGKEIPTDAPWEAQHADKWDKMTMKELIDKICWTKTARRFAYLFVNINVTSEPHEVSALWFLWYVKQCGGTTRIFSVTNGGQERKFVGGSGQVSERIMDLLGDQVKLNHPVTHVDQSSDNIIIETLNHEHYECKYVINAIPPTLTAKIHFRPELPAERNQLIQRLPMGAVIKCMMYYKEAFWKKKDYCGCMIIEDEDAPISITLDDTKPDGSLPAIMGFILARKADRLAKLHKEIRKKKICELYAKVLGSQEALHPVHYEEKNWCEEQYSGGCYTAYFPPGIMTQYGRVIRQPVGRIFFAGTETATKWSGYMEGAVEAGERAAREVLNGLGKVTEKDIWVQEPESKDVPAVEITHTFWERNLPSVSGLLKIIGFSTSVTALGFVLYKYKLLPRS
Procedure: as §1

hMAO-B [8] = biological target: T1, hMAO-B; assay: Reversibility of MAO-B inhibition by dialysis; type: biochemical
Procedure: Stock solutions of the test compounds were prepared in DMSO and added to the incubations to yield 4% DMSO. The samples were dialyzed for 24 h at 4 °C in 80 ml of dialysis buffer using Slide-A-Lyzer® dialysis cassettes (Thermo Scientific) with a molecular weight cut-off of 10,000 and a sample volume capacity of 0.5–3 ml. The dialysis buffer was replaced at 3 and 7 h after the start of dialysis. Following dialysis, the dialysis samples were diluted twofold with the addition of kynuramine to yield a kynuramine concentration and inhibitor concentration of 50 µM and 2 × IC50, respectively. The reactions (500 µL) were incubated for 20 min at 37 °C and terminated with NaOH (400 μL, 2 N) and water (1000 µL). The fluorescence of 4-hydroxyquinoline in these samples was measured as described for the IC50 determination above. […] Undialysed mixtures of MAO-B and the test inhibitors were maintained at 4 °C for 24 h and diluted and assayed as above. All reactions were carried out in triplicate and the residual enzyme catalytic rates are expressed as mean ± SD.
Reversibility of MAO inhibition is an important factor to consider when evaluating the inhibition properties of potential inhibitors. Irreversible MAO inhibitors, particularly of the MAO-A isoform, are associated with dangerous adverse effects such as the cheese reaction, which occurs when irreversible MAO-A inhibitors are taken with tyramine-rich food[51]. […] The samples were diluted twofold and the residual MAO-B activity was measured. For reversible inhibition, dialysis is expected to reverse inhibition by the test inhibitors and restore enzyme activity to the level of the negative control. […] A final experiment consisted of incubations containing MAO-B and tested inhibitors which were not dialyzed, but maintained for 24 h.

hMAO-B [9] = biological target: T1, hMAO-B; assay: Lineweaver-Burk plots, mode of inhibition and Ki; type: biochemical
Procedure: To construct Lineweaver–Burk plots, the enzyme reactions were carried out to a volume of 500 µL and the concentration of MAO-B was 0.015 mg protein/mL. All enzyme reactions and activity measurements were carried out as described above for the dialysis experiments. The first plot was constructed in the absence of inhibitor, while the remaining five plots were constructed in the presence of the following concentrations: ¼ × IC50, ½ × IC50, ¾ × IC50, 1 × IC50 and 1¼ × IC50. For each line, kynuramine was used at concentrations of 15–250 μM. The Ki value was estimated from a plot of the slopes of the Lineweaver–Burk plots versus inhibitor concentration (x-axis intercept equals –Ki).
To provide further support for the reversibility of MAO-B inhibition by compounds 4 and 37, a set of Lineweaver–Burk plots was constructed for each inhibitor at the following inhibitor concentrations: ¼ × IC50, ½ × IC50, ¾ × IC50, 1 × IC50, and 1¼ × IC50. The substrate, kynuramine, was used at 15–250 µM for each line. […] The lines of the plots intersect on the y-axis and a replot of the slopes versus inhibitor concentration yields a linear line, from which the enzyme-inhibitor dissociation constant (Ki) was estimated (Ki = −x-axis intercept).

[10] = recombinant hMAO-B, kynuramine 50 μM, 20 min, 37 °C, read-out: IC50 hMAO-B

Row | SMILES | IC50 (hMAO-B [1]; [10]) [µM] | melting point [°C] | IC50 (hMAO-B [1]) [µM] | EC50 [2] [µM] | IC50 [3] [µM] | IC50 [4] [µM] | EC50 [5] [µM] | EC50 [6] [µM] | IC50 [7] [µM] | Selectivity index (SI) for the MAO-B isoform (hMAO-B [1]) | also measured
1 | O=[N+]([O-])c1cccc(-c2csc(NN=Cc3ccco3)n2)c1 [Compound 1, 1-(Furan-2-ylmethylene)-2-(4-(3-nitrophenyl)thiazol-2-yl)hydrazine] | 0.095 | 213 to 215 | – | – | – | – | – | – | – | – | –
2 | CC(=NNc1nc(-c2cccc([N+](=O)[O-])c2)cs1)c1ccsc1 [Compound 5, 1-(4-(3-Nitrophenyl)thiazol-2-yl)-2-(1-(thiophen-3-yl)ethylidene)hydrazine] | – | – | 0.0025 | 1160 ± 30 | 1210 ± 10 | 1050 ± 20 | 480 ± 30 | 520 ± 20 | > 5000 | – | –
3 | CC(=NNc1nc(-c2cccc([N+](=O)[O-])c2)cs1)c1ccccc1 [Compound 11, 1-(4-(3-Nitrophenyl)thiazol-2-yl)-2-(1-phenylethylidene)hydrazine] | – | 261 to 263 | 0.0071 | 1460 ± 80 | 1280 ± 10 | 1040 ± 10 | 550 ± 20 | 590 ± 10 | > 5000 | 666 | –
4 | CC(=NNc1nc(-c2cccc([N+](=O)[O-])c2)cs1)c1ccccc1[N+](=O)[O-] [Compound 13, 1-(1-(2-Nitrophenyl)ethylidene)-2-(4-(3-nitrophenyl)thiazol-2-yl)hydrazine] | 0.0044 | – | – | 3100 ± 360 | 1590 ± 10 | 1040 ± 10 | 400 ± 10 | 450 ± 40 | > 5000 | 3477 | –
5 | CC(=O)c1ccc(C(C)=NNc2nc(-c3cccc([N+](=O)[O-])c3)cs2)cc1 [Compound 31, 1-(1-(4-Acetylphenyl)ethylidene)-2-(4-(3-nitrophenyl)thiazol-2-yl)hydrazine] | 42.1 | 205 to 207 | – | – | – | – | – | – | – | 5.4 | –
6 | CC(=NNc1nc(-c2cccc([N+](=O)[O-])c2)cs1)c1ccc2ccc3ccccc3c2c1 [Compound 34, 1-(4-(3-Nitrophenyl)thiazol-2-yl)-2-(1-(phenanthren-3-yl)ethylidene)hydrazine] | 80.5 | 255 to 257 | – | – | – | – | – | – | – | – | IC50 (hMAO-A): 101 µM
7 | Nc1cccc(-c2csc(N/N=C/c3cccs3)n2)c1 [Compound 37] | – | – | 2.67 | – | – | – | – | – | – | – | Reversibility of MAO-B inhibition (hMAO-B [8]; dialysis 24 h): fully reversible; Residual MAO-B activity, undialysed mixtures (hMAO-B [8]; inhibitor at 4 × IC50, not dialyzed, maintained 24 h): 20%; Residual MAO-B activity after dialysis (hMAO-B [8]; inhibitor at 4 × IC50, preincubated 15 min, dialyzed 24 h, relative to negative control): 97%; Ki (hMAO-B [9]): 1.84 µM; Mode of MAO-B inhibition (hMAO-B [9]; Lineweaver-Burk plots): competitive
